CC(C)(C#N)N=NC(C)(C)C#N
Details	solubility (mole fraction)
in acetone, 278.15 K	0.0518
in acetone, 283.45 K	0.062
in acetone, 288.75 K	0.0741
in acetone, 293.05 K	0.0881
in acetone, 297.85 K	0.106
in acetone, 302.95 K	0.127
in acetone, 307.95 K	0.145
in acetone, 312.75 K	0.176
in acetone, 318.05 K	0.209
in acetone, 322.75 K	0.236
in benzene, 279.25 K	0.0254
in benzene, 283.75 K	0.0311
in benzene, 290.05 K	0.0411
in benzene, 293.65 K	0.049
in benzene, 298.05 K	0.0603
in benzene, 303.25 K	0.077
in benzene, 307.95 K	0.0938
in benzene, 312.65 K	0.119
in benzene, 317.65 K	0.151
in benzene, 322.25 K	0.181
in ethanol, 278.55 K	0.00263
in ethanol, 284.35 K	0.00408
in ethanol, 288.95 K	0.00511
in ethanol, 293.15 K	0.00667
in ethanol, 297.85 K	0.00938
in ethanol, 302.95 K	0.0128
in ethanol, 307.65 K	0.0165
in ethanol, 312.55 K	0.0221
in ethanol, 317.65 K	0.0314
in ethanol, 322.55 K	0.0427
in ethyl acetate, 278.15 K	0.0349
in ethyl acetate, 282.85 K	0.0424
in ethyl acetate, 287.75 K	0.053
in ethyl acetate, 293.65 K	0.0669
in ethyl acetate, 298.35 K	0.0821
in ethyl acetate, 303.15 K	0.0959
in ethyl acetate, 307.85 K	0.119
in ethyl acetate, 312.95 K	0.144
in ethyl acetate, 317.95 K	0.175
in ethyl acetate, 322.95 K	0.206
in methanol, 268.15 K	0.0034
in methanol, 273.15 K	0.00441
in methanol, 278.15 K	0.00567
in methanol, 283.15 K	0.00738
in methanol, 288.15 K	0.00942
in methanol, 293.15 K	0.0124
in methanol, 298.15 K	0.0162
in methanol, 303.15 K	0.0212
in methanol, 308.15 K	0.0277
in methanol, 313.15 K	0.0364
in methanol, 318.15 K	0.0479
in methanol, 323.15 K	0.0637

— BigSolDB 2.1
